This passage reports GI50 and TGI results from PubChem BioAssay (NCI).

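Exposure lasted 48 hours, with cells grown in 96-well plates and compounds tested at five concentrations. The concentration for 50% growth inhibition is given as GI50. The concentration for full growth arrest is given as TGI.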

One test concerns SK-MEL-28 melanoma. As to the kind of experiment: growth of human tumour cells (NCI), 48 h.
Regarding `N#C/C=C(\c1ccc([N+](=O)[O-])cc1)n1nnc2cc(Cl)c(Cl)cc21`, the GI50 was 2.08 µM and the TGI is 4.23 µM.
`CCN(CC)CCOc1ccc(/C=C2\CC3C4CC=C5C[C@@H](O)CC[C@]5(C)C4CC[C@]3(C)C2=O)cc1OC` (stereo not given in full): the GI50 was 9.61 µM and the TGI was found to be 73.4 µM.
The like results for `CC1(C)OCCn2c1nc1c(N3CCOCC3)nc(-c3cnc(N)nc3)nc12` were, in that order, 0.231 µM and 4.08 µM.
Regarding `CC1=CC(=O)[C@@H](O)[C@]2(C)[C@H]3[C@@]4(O)OC[C@]35[C@H]([C@@H](C)[C@H]4O)[C@@H](O)C(=O)O[C@@H]5C[C@@H]12`, the TGI was determined as 0.691 µM.
For `COc1cc(-c2nn(-c3cccc(NC(=O)Nc4ccc(Cl)c(Cl)c4)c3)cc2-c2ccncc2)ccc1Cl`, the GI50 is 1.43 µM and the TGI was 7.32 µM.
As for `COc1ccc2[nH]cc(-c3nc(-c4c[nH]c5ncccc45)cs3)c2c1`, the GI50 was 6.43 µM and the TGI was over 100 µM.
Turning to `CCOC(=O)C(=Cc1cccc(Cl)c1)C(=O)OCC`, the GI50 was 1.62 µM and the TGI was 3.26 µM.
`O=c1cc(-c2ccccc2)[nH]c2c(S)cccc12`: the TGI was over 100 µM.

For the next test, the system named is M14 melanoma. In words: growth of human tumour cells (NCI), 48 h.
In the case of `Nc1nccc2c1ccn2-c1ccc(NC(=O)c2ccc(N3CCOCC3)c(C(F)(F)F)c2)cc1`, the GI50 is 0.622 µM and the TGI worked out at 2.54 µM.
Take `Cc1[nH]c2ccccc2c1-c1cc(-c2cc(-c3c(C)[nH]c4ccccc34)on2)no1`: the TGI was over 100 µM.
For `Cn1cnc([N+](=O)[O-])c1S(=O)(=O)Oc1ccccc1`, the GI50 was 11.1 µM and the TGI turned out to be 27.3 µM.
On to `COc1cc(C2c3cc4c(cc3C(O)C(CO)C2CO)OCO4)cc(OC)c1OC` (stereo not given), for which the GI50 is 0.706 µM and the TGI was over 100 µM.
For the molecule `CCCNC(=S)/N=C/c1c(O)c2ccccc2[nH]c1=O`, the TGI was over 100 µM.
`COC1C(O)=C2C(=O)O/C(C)=C/C=C/C=C/C=C\CC(c3ccccc3)NC(=O)\C=C/C=C\C=C\C=C\[C@@]2(C)[C@@H]1O` (stereo not given in full): the TGI is 0.35 µM.
With `COC12C=C/C(=C(/C(=O)OCc3ccncc3)C(=O)CCCCCCCCC3(OC)C=C/C(=C(/C(=O)OCc4ccncc4)C(=O)CCCCCCCC1)O3)O2`, the GI50 was 0.17 µM and the TGI came to 0.574 µM.
`CC(C)=CCc1cc(O)cc2c1OC(C=C(C)C)C1=C2C(=O)C2=C(NCCS2(=O)=O)C1=O` (stereo not given): the GI50 is 0.646 µM and the TGI is 2.69 µM.
On to `C1CSCCSCCS1`, for which the TGI was over 100 µM.
On to `N#C/C=C(\c1ccc([N+](=O)[O-])cc1)n1nnc2cc(Cl)c(Cl)cc21`, for which the GI50 is 1.86 µM and the TGI turned out to be 4.5 µM.
As to `CCN(CC)CCOc1ccc(/C=C2\CC3C4CC=C5C[C@@H](O)CC[C@]5(C)C4CC[C@]3(C)C2=O)cc1OC` (stereo not given in full), the GI50 was 2.06 µM and the TGI was found to be 4.34 µM.
For `CC1(C)OCCn2c1nc1c(N3CCOCC3)nc(-c3cnc(N)nc3)nc12` the same measures were 0.316 µM and over 100 µM.
For `CC1=CC(=O)[C@@H](O)[C@]2(C)[C@H]3[C@@]4(O)OC[C@]35[C@H]([C@@H](C)[C@H]4O)[C@@H](O)C(=O)O[C@@H]5C[C@@H]12`, the TGI was found to be 1.04 µM.
In the case of `COc1cc(-c2nn(-c3cccc(NC(=O)Nc4ccc(Cl)c(Cl)c4)c3)cc2-c2ccncc2)ccc1Cl`, the GI50 was 0.911 µM and the TGI was determined as 2.69 µM.
For `COc1ccc2[nH]cc(-c3nc(-c4c[nH]c5ncccc45)cs3)c2c1`, the GI50 is 2.99 µM and the TGI was over 100 µM.
As for `CCOC(=O)C(=Cc1cccc(Cl)c1)C(=O)OCC`, the GI50 was 2 µM and the TGI worked out at 4.56 µM.
On to `O=c1cc(-c2ccccc2)[nH]c2c(S)cccc12`, for which the TGI was over 100 µM.

The test system of a further test is UACC-62 melanoma. In words: growth of human tumour cells (NCI), 48 h.
For `Nc1nccc2c1ccn2-c1ccc(NC(=O)c2ccc(N3CCOCC3)c(C(F)(F)F)c2)cc1`, the GI50 is 0.337 µM and the TGI came to 1.19 µM.
As for `Cc1[nH]c2ccccc2c1-c1cc(-c2cc(-c3c(C)[nH]c4ccccc34)on2)no1`, the TGI was over 100 µM.
`Cn1cnc([N+](=O)[O-])c1S(=O)(=O)Oc1ccccc1`: the GI50 is 14.9 µM and the TGI amounted to 32.2 µM.
For `COc1cc(C2c3cc4c(cc3C(O)C(CO)C2CO)OCO4)cc(OC)c1OC` (stereo not given) the same measures were 0.534 µM and over 100 µM.
Molecule `CCCNC(=S)/N=C/c1c(O)c2ccccc2[nH]c1=O` had a TGI of over 100 µM.
`COC1C(O)=C2C(=O)O/C(C)=C/C=C/C=C/C=C\CC(c3ccccc3)NC(=O)\C=C/C=C\C=C\C=C\[C@@]2(C)[C@@H]1O` (stereo not given in full): the TGI is 0.551 µM.
As to `CC(C)=CCc1cc(O)cc2c1OC(C=C(C)C)C1=C2C(=O)C2=C(NCCS2(=O)=O)C1=O` (stereo not given), the GI50 is 0.875 µM and the TGI came out at 3.5 µM.
In the case of `NS(=O)(=O)c1ccc(N(/C=C/C(=O)C(F)(F)F)CC(=O)c2ccc(Cl)cc2)cc1`, the GI50 was 27.7 µM and the TGI turned out to be 91.6 µM.
In turn, `C1CSCCSCCS1` displayed a TGI of over 100 µM.
As to `N#C/C=C(\c1ccc([N+](=O)[O-])cc1)n1nnc2cc(Cl)c(Cl)cc21`, the GI50 is 1.77 µM and the TGI is 3.95 µM.
For `CCN(CC)CCOc1ccc(/C=C2\CC3C4CC=C5C[C@@H](O)CC[C@]5(C)C4CC[C@]3(C)C2=O)cc1OC` (stereo not given in full) the same measures were 1.71 µM and 3.3 µM.
Take `CC1(C)OCCn2c1nc1c(N3CCOCC3)nc(-c3cnc(N)nc3)nc12`: the GI50 was 0.185 µM and the TGI was found to be 1.42 µM.
With `CC1=CC(=O)[C@@H](O)[C@]2(C)[C@H]3[C@@]4(O)OC[C@]35[C@H]([C@@H](C)[C@H]4O)[C@@H](O)C(=O)O[C@@H]5C[C@@H]12`, the TGI was found to be 6.29 µM.
As for `COc1cc(-c2nn(-c3cccc(NC(=O)Nc4ccc(Cl)c(Cl)c4)c3)cc2-c2ccncc2)ccc1Cl`, the GI50 is 0.773 µM and the TGI was 1.86 µM.
With `COc1ccc2[nH]cc(-c3nc(-c4c[nH]c5ncccc45)cs3)c2c1`, the GI50 was 3.66 µM and the TGI is over 100 µM.
The like results for `CCOC(=O)C(=Cc1cccc(Cl)c1)C(=O)OCC` were, in that order, 1.65 µM and 3.58 µM.
`O=c1cc(-c2ccccc2)[nH]c2c(S)cccc12` showed a TGI of over 100 µM.
